For the test, the system named is C. parvum strain UGA1. The experiment in a line: C. parvum growth inhibition assay (Nluc luminescence in HCT-8 cells). Format: cell-based, Cryptosporidium parvum. Particulars: Cryptosporidium parvum; for inhibition at 1 µM / inhibition at 10 µM: HCT-8; for inhibition at 1 µM: read-out: % inh @ 1 uM C. parvum; for inhibition at 10 µM: read-out: % inh @ 10 uM C. parvum; for EC50: HCT-8, 48 h, C. parvum growth inhibition in HCT-8 cells, 48 hours, 6 concentrations 10-0.04 μM.

Setting [1] is: single point inhibition at 1 uM.
The mark [2] stands for this setting: single point inhibition at 10 uM.
Setting [3] is: single point inhibition @ 10 uM.

Read-outs that look alike come from different tables or passages of the source. A value given as a limit tells only on which side of the number the result lay.

Drawing on patent publication US20240124444A1 (Celgene Corporation, priority 2020, published 2024), this text covers inhibition and EC50 for 32 molecules.

Regarding `Cn1cc(C(=O)Nc2cc3[nH]c(-c4cnc(C(F)(F)F)cn4)cc3cn2)cn1` [Example 304, 1-methyl-N-(2-(5-(trifluoromethyl)pyrazin-2-yl)-1H-pyrrolo[3,2-c]pyridin-6-yl)-1H-pyrazole-4-carboxamide], the inhibition at 1 µM under setting [1] lay within 33 to 66%. The inhibition at 10 µM under setting [2] lay in the range of 0 to 33%.

Take `Cn1cc(C(=O)Nc2cc3[nH]c(-c4cnn(C)c4)cc3cn2)cn1` [Example 331, 1-methyl-N-(2-(1-methyl-1H-pyrazol-4-yl)-1H-pyrrolo[3,2-c]pyridin-6-yl)-1H-pyrazole-4-carboxamide]: the inhibition at 1 µM under setting [1] lay within 0 to 33%. For the same molecule, the inhibition at 10 µM under setting [2] is 0 to 33%.

Usually EC50 stands for the midpoint of the concentration-response curve. Low readings indicate an effect from little substance, high ones a need for much substance. The molecule `Cn1ccc(-c2cc3cnc(NC(=O)C4CC4)cc3n2C)n1` [Example 345, N-(1-methyl-2-(1-methyl-1H-pyrazol-3-yl)-1H-pyrrolo[3,2-c]pyridin-6-yl)cycloproapnecarboxamide] had an EC50 of over 1 µM.

As for `CC(Oc1nccc(-c2cc3cnc(NC(=O)c4cnn(C)c4)cc3[nH]2)n1)C(F)(F)F` (stereo in doubt) [Example 314, (R)-1-methyl-N-(2-(2-(1,1,1-trifluoropropan-2-yloxy)pyrimidin-4-yl)-1H-pyrrolo[3,2-c]pyridin-6-yl)-1H-pyrazole-4-carboxamide], the inhibition at 1 µM under setting [1] is 0 to 33%. Under setting [2], the inhibition at 10 µM lay within 0 to 33%.

For `Cc1cc(Nc2cc3[nH]c(-c4ccncc4)cc3cn2)nn1C(C)C` [Example 168, N-(1-isopropyl-5-methyl-1H-pyrazol-3-yl)-2-(pyridin-4-yl)-1H-pyrrolo[3,2-c]pyridin-6-amine], for the setting “single point inhibition @ 1 uM”, the inhibition at 1 µM fell in the range of 33 to 66%. Further, under setting [3], the inhibition at 10 µM was 67 to 100%.

`CC(C)n1cc(C(=O)Nc2cc3[nH]c(-c4ccnc(N(C)CC(F)(F)F)n4)cc3cn2)cn1` [Example 232, 1-isopropyl-N-(2-(2-(methyl(2,2,2-trifluoroethyl)amino)pyrimidin-4-yl)-1H-pyrrolo[3,2-c]pyridin-6-yl)-1H-pyrazole-4-carboxamide]: the inhibition at 1 µM under setting [1] was in the range of 0 to 33%. Moreover, the inhibition at 10 µM under setting [2] is 33 to 66%.

For `COc1cc(Nc2cc3[nH]c(-c4ccncc4)cc3cn2)cc(-n2cncn2)c1` [Example 140, N-(3-methoxy-5-(1H-1,2,4-triazol-1-yl)phenyl)-2-(pyridin-4-yl)-1H-pyrrolo[3,2-c]pyridin-6-amine], the inhibition at 1 µM (single point inhibition @ 1 uM) is 0 to 33%. The inhibition at 10 µM under setting [3] was 67 to 100%.

Take `O=C(Nc1cc2[nH]c(-c3ccncc3)cc2cn1)C1CCCC1` [Example 137, N-(2-(pyridin-4-yl)-1H-pyrrolo[3,2-c]pyridin-6-yl)cyclopentanecarboxamide]: the inhibition at 1 µM (single point inhibition @ 1 uM) is 0 to 33%. Further, the inhibition at 10 µM under setting [3] fell in the range of 67 to 100%.

For the molecule `O=C(Nc1cc2[nH]c(C(F)(F)F)cc2cn1)C1CCOCC1` [Example 105, N-(2-(trifluoromethyl)-1H-pyrrolo[3,2-c]pyridin-6-yl)tetrahydro-2H-pyran-4-carboxamide], the EC50 was over 1 µM.

With `Cc1cc(-c2cc3cnc(NC(=O)C4CC4)cc3n2CCN(C)C)ccn1` [Example 333, N-(1-(2-(dimethylamino)ethyl)-2-(2-methylpyridin-4-yl)-1H-pyrrolo[3,2-c]pyridin-6-yl)cyclopropanecarboxamide], the inhibition at 1 µM under setting [1] lay in the range of 0 to 33%. In addition, the inhibition at 10 µM under setting [2] was 0 to 33%.

As to `Cn1c(-c2cccnc2)cc2cnc(Nc3cnn(C4CCOCC4)c3)cc21` [Example 266, 1-methyl-2-(pyridin-3-yl)-N-(1-(tetrahydro-2H-pyran-4-yl)-1H-pyrazol-4-yl)-1H-pyrrolo[3,2-c]pyridin-6-amine], under setting [1], the inhibition at 1 µM lay within 0 to 33%. In addition, the inhibition at 10 µM under setting [2] was 0 to 33%.

As for `CN(C)C(=O)Nc1cc2[nH]c(C(F)(F)F)cc2cn1` [Example 108, 1,1-dimethyl-3-(2-(trifluoromethyl)-1H-pyrrolo[3,2-c]pyridin-6-yl)urea], the EC50 is over 1 µM.

`c1nc(NC2CCOCC2)cc2[nH]c(C3CCCCC3)cc12` [Example 26, 2-Cyclohexyl-N-(tetrahydro-2H-pyran-4-yl)-1H-pyrrolo[3,2-c]pyridin-6-amine]: the EC50 was over 1 µM.

Molecule `Cn1c(-c2cc(NCC(F)(F)F)ncn2)cc2cnc(NC3CCOCC3)cc21` [Example 365] returned an EC50 of over 1 µM.

`FC(F)(F)c1c[nH]c2cc(NC3CCOCC3)ncc12` [Example 376, N-(tetrahydro-2H-pyran-4-yl)-3-(trifluoromethyl)-1H-pyrrolo[3,2-c]pyridin-6-amine] had an EC50 of over 1 µM.

`Cc1cc(-c2cc3cnc(N[C@H]4CCCOC4)cc3[nH]2)ccn1` [Example 22, (S)-2-(2-Methylpyridin-4-yl)-N-(tetrahydro-2H-pyran-3-yl)-1H-pyrrolo[3,2-c]pyridin-6-amine]: the half-maximal effective concentration (EC50) is over 1 µM. The inhibition at 1 µM (single point inhibition @ 1 uM) was in the range of 33 to 66%. Besides, under setting [3], the inhibition at 10 µM was in the range of 67 to 100%.

With `COc1cccc(Nc2cc3[nH]c(-c4cnn(C)c4)cc3cn2)c1` [Example 197, N-(3-methoxyphenyl)-2-(1-methyl-1H-pyrazol-4-yl)-1H-pyrrolo[3,2-c]pyridin-6-amine], where the note is “single point inhibition @ 1 uM”, the inhibition at 1 µM lay in the range of 0 to 33%. Further, under setting [3], the inhibition at 10 µM was in the range of 67 to 100%.

In the case of `O=C(Nc1cc2[nH]c(-c3ccnc(OCCC(F)(F)F)n3)cc2cn1)c1cnn([C@H]2CC[C@H](O)CC2)c1` [Example 216, 1-((1r,4r)-4-hydroxycyclohexyl)-N-(2-(2-(3,3,3-trifluoropropoxy)pyrimidin-4-yl)-1H-pyrrolo[3,2-c]pyridin-6-yl)-1H-pyrazole-4-carboxamide], the inhibition at 1 µM under setting [1] fell in the range of 0 to 33%. Besides, the inhibition at 10 µM under setting [2] lay within 67 to 100%.

Regarding `CNc1cc2c(cn1)cc(-c1ccnc(NCC(F)(F)F)n1)n2C` [Example 390, N,1-dimethyl-2-(2-(2,2,2-trifluoroethylamino)pyrimidin-4-yl)-1H-pyrrolo[3,2-c]pyridin-6-amine], the EC50 is over 1 µM.

As to `Cn1cc(C(=O)Nc2cc3[nH]c(-c4ccnc(C(F)(F)F)c4)cc3cn2)cn1` [Example 284, 1-methyl-N-(2-(2-(trifluoromethyl)pyridin-4-yl)-1H-pyrrolo[3,2-c]pyridin-6-yl)-1H-pyrazole-4-carboxamide], the inhibition at 1 µM under setting [1] fell in the range of 0 to 33%. Further, the inhibition at 10 µM under setting [2] was 0 to 33%.

As for `CCCOc1nccc(-c2cc3cnc(NC(=O)c4cnn(C)c4)cc3[nH]2)n1` [Example 312, 1-methyl-N-(2-(2-propoxypyrimidin-4-yl)-1H-pyrrolo[3,2-c]pyridin-6-yl)-1H-pyrazole-4-carboxamide], under setting [1], the inhibition at 1 µM is 0 to 33%. Moreover, under setting [2], the inhibition at 10 µM lay within 0 to 33%.

As for `Cc1cc(-c2cc3cnc(NC(=O)OC4CCCC4)cc3[nH]2)ccn1` [Example 170, cyclopentyl 2-(2-methylpyridin-4-yl)-1H-pyrrolo[3,2-c]pyridin-6-ylcarbamate], under “single point inhibition @ 1 uM”, the inhibition at 1 µM fell in the range of 0 to 33%. Moreover, under setting [3], the inhibition at 10 µM was in the range of 67 to 100%.

The molecule `Cn1c(-c2ccnc(C(F)(F)F)n2)cc2cnc(NC3CCOCC3)cc21` [Example 396, 1-methyl-N-(tetrahydro-2H-pyran-4-yl)-2-(2-(trifluoromethyl)pyrimidin-4-yl)-1H-pyrrolo[3,2-c]pyridin-6-amine] gave an EC50 of over 1 µM.

As to `Cn1cc(Nc2cc3[nH]c(-c4ccnc(C#N)c4)cc3cn2)cn1` [Example 56, 4-(6-(1-methyl-1H-pyrazol-4-ylamino)-1H-pyrrolo[3,2-c]pyridin-2-yl)picolinonitrile], the EC50 was over 1 µM. For the same molecule, for the setting “single point inhibition @ 1 uM”, the inhibition at 1 µM is 0 to 33%. Also, the inhibition at 10 µM under setting [3] lay in the range of 67 to 100%.

Regarding `Cc1cc(-c2cc3cnc(NC(=O)[C@H]4C[C@H](O)C4)cc3[nH]2)ccn1` [Example 187, (1r,3r)-3-hydroxy-N-(2-(2-methylpyridin-4-yl)-1H-pyrrolo[3,2-c]pyridin-6-yl)cyclobutanecarboxamide], the inhibition at 1 µM (single point inhibition @ 1 uM) is 33 to 66%. Under setting [3], the inhibition at 10 µM fell in the range of 67 to 100%.

As for `Cc1c(C(=O)Nc2cc3[nH]c(-c4ccncc4)cc3cn2)cnn1C` [Example 166, 1,5-dimethyl-N-(2-(pyridin-4-yl)-1H-pyrrolo[3,2-c]pyridin-6-yl)-1H-pyrazole-4-carboxamide], where the note is “single point inhibition @ 1 uM”, the inhibition at 1 µM was 0 to 33%. The inhibition at 10 µM under setting [3] is 67 to 100%.

`O=C(CC1COC1)Nc1cc2[nH]c(-c3ccnc(C(F)(F)F)n3)cc2cn1` [Example 91, 2-(oxetan-3-yl)-N-(2-(2-(trifluoromethyl)pyrimidin-4-yl)-1H-pyrrolo[3,2-c]pyridin-6-yl)acetamide] returned an EC50 of over 1 µM. Further, the inhibition at 1 µM (single point inhibition @ 1 uM) was in the range of 0 to 33%. Under setting [3], the inhibition at 10 µM was in the range of 0 to 33%.

Turning to `CC(C)n1cc(C(=O)Nc2cc3c(cn2)cc(-c2ccnc(NCC4CC4)n2)n3C)cn1` [Example 131, N-(2-(2-(cyclopropylmethylamino)pyrimidin-4-yl)-1-methyl-1H-pyrrolo[3,2-c]pyridin-6-yl)-1-isopropyl-1H-pyrazole-4-carboxmaide], the inhibition at 1 µM (single point inhibition @ 1 uM) was 0 to 33%. Further, under setting [3], the inhibition at 10 µM lay within 67 to 100%.

`Cc1cc(-c2cc3cnc(NC4COC4)cc3[nH]2)ccn1` [Example 113, 2-(2-methylpyridin-4-yl)-N-(oxetan-3-yl)-1H-pyrrolo[3,2-c]pyridin-6-amine] showed an EC50 of over 1 µM.

Turning to `Cc1cc(-c2cc3cnc(NC(=O)N(C)C)cc3[nH]2)ccn1` [Example 291, 1,1-dimethyl-3-(2-(2-methylpyridin-4-yl)-1H-pyrrolo[3,2-c]pyridin-6-yl)urea], the inhibition at 1 µM under setting [1] was in the range of 0 to 33%. For the same molecule, the inhibition at 10 µM under setting [2] is 0 to 33%.

`O=C(Nc1cc2[nH]c(-c3cnc(C(F)(F)F)o3)cc2cn1)C1CC1` [Example 110, N-(2-(2-(trifluoromethyl)oxazol-5-yl)-1H-pyrrolo[3,2-c]pyridin-6-yl)cyclopropanecarboxamide] had an EC50 of over 1 µM.

Take `Cn1cc(C(=O)Nc2cc3[nH]c(-c4ccnc(OCC(F)F)n4)cc3cn2)cn1` [Example 310, N-(2-(2-(2,2-difluoroethoxy)pyrimidin-4-yl)-1H-pyrrolo[3,2-c]pyridin-6-yl)-1-methyl-1H-pyrazole-4-carboxamide]: under setting [1], the inhibition at 1 µM is 0 to 33%. For the same molecule, under setting [2], the inhibition at 10 µM lay in the range of 0 to 33%.
